Test results from PubChem BioAssay AID179 (DTP/NCI, 2004).
Calls of active or inactive are those of the source.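 The calls were made as follows: active = compounds giving half or more protection of infected cells from virus-caused growth loss, again on retest; inactive = the rest.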

Test system: CEM cells HIV-1 protection, formazan growth assay
Experiment: NCI AIDS Antiviral Assay
Conditions: for IC50: measured here: growth of uninfected CEM cells
Protocol: The ability of compounds to protect human CEM cells from HIV-1 infection is measured as a screen for new compounds capable of inhibiting the HIV virus. Five concentrations of drug were tested on uninfected and infected cells and cell growth was measured using a soluble formazan assay. […] Compounds that provided at least 50% protection were retested. Compounds that provided at least 50% protection on retest were listed as moderately active. Compounds that reproducibly provided 100% protection were listed as confirmed active. […] Note that the inability to provide protection could be due to toxicity.

Structure (SMILES)	EC50 [µM]	IC50 [µM]	outcome
CC(=O)CC1CCC(=O)/C=C/C(=O)OC(CC(C)=O)CCC(=O)/C=C/C(=O)O1 (configuration not stated)	> 200	1.91	
Cc1cc(=O)[nH]c2c3c(ccc12)OC(C)(C)C=C3	> 200	3.72	
CCOC(=O)C1CCC2c3[nH]c4ccccc4c3CCN2C1=O (configuration not stated)	> 115	> 115	
O=C(COc1ccc(Cl)cc1)N1CCN(C(=O)COc2ccc(Cl)cc2)c2ccccc21	> 11	> 11	
CCN(C(=N)C#N)c1ccccc1	> 513	302	
CC1=CC2C(O)(CC(CO)=CC3C4C(C)(C)C4(O)C(O)C(C)C32O)C1=O (configuration not stated)			inactive
Cc1ccc(NC(Nc2ccc(C)cc2C)=C(/C=C(\Cl)[N+](=O)[O-])[N+](=O)[O-])c(C)c1	> 200	2.51	
OCC1C2CCC3(OCCO3)C12 (configuration not stated)	> 200	> 200	
Cc1ccc2c(c1)nc(-c1ccccn1)n2CCc1ccccn1	> 347	83.2	
CCc1occc(=O)c1O	> 1780	339	
COc1cc2c(cc1O)CC[n+]1cc3c(OC)c(OC)ccc3cc1-2	> 182	> 182	
Cc1c[nH]c(C(=O)O)c1-c1ccc2c(-c3ccccc3)nc3ccccc3n12	> 200	33.1	
COC(=O)[C@H](C)NC(=O)[C@H](CSC)N1C(=O)N[C@@H](C(C)C)C1=O	> 200	24.5	
CC1=C(O)C(=O)C(c2c(C)cc(C)c(Br)c2C)=C(O)C1=O	> 115	15.5	
Cc1cn(C2CC(O[Si](C)(C)C(C)(C)C)C(CN(O)C(N)=O)O2)c(=O)[nH]c1=O (configuration not stated)	> 200	> 200	
CC1(S)CC2C(CC1Sc1ccccc1)C2(C)C (configuration not stated)	> 25.7	> 25.7	
Cc1cc(NS(=O)(=O)c2ccc(N=Nc3c(N)n(C)c(=O)n(C)c3=O)cc2)nc(C)n1	> 200	> 200	
O=C(NNC1=NCCCN1)Nc1ccccc1	> 200	> 200	
CC(=O)OCC1C(C(C)OC(C)=O)CCC2C1CCC1(C)C(OC(C)=O)CCC21 (configuration not stated)	> 20.4	16.6	
NC(CSS(=O)(=O)O)=NC1CC2CCC1C2 (configuration not stated)	> 200	120	
CCN(CCCc1ccccc1)CCCc1ccccc1	> 200	105	
O=C1C(Cl)=C(Cl)C(=O)N1c1c(F)c(F)c(F)c(F)c1F			inactive

Structure (SMILES)	EC50 [µM]	IC50 [µM]	outcome
CC1CN=C(NCc2ccccc2)S1 (configuration not stated)	> 200	> 200	
COc1ccc(CCC2NCCc3cc(OC)c(OC)cc32)cc1 (configuration not stated)	> 692	102	
S=C1NNC2(C(=S)N1)c1ccccc1-c1ccccc12	> 200	87.1	
COc1ccc(C2=C(OC(=O)N(C)C)c3cccn3-c3cc(C(F)(F)F)ccc3S2)cc1	> 200	> 200	
O=C(NNC(=S)NCc1ccccc1)c1csc(NC(=S)NC2CCCCC2)n1	> 200	57.5	
Cc1ccc(S(=O)(=O)c2c(N)n(CCN(C)C)c3nc4ccccc4nc23)cc1	> 200	> 200	
CC(C)(C)OC(=O)NC(Cc1cc(C(C)(C)C)c(O)c(C(C)(C)C)c1)C(=O)O (configuration not stated)	> 200	61.7	
CCN(c1ccccc1)[C@H]1C(=O)N(c2ccc([N+](=O)[O-])cc2)[C@H]1c1ccc(OC)cc1			inactive
CC(C)C(NC(=O)C(Cc1ccccc1)NC(=O)[C@H]1CCC[C@H]1NC(=O)C(N)Cc1ccc(O)cc1)C(N)=O (some centres not stated)			inactive
CC(C)=CCC[C@@H](C)C1=C(O)C(Nc2ccccc2F)=C(C)C(=O)C1=O	> 200	15.8	
Cc1cc(NS(=O)(=O)c2ccc(NO)cc2)no1	> 70.8	15.8	
O=[N+]([O-])c1cccc(-c2nc3ccccc3[nH]2)c1			inactive
Cn1c(=O)c2c3ccccc3c(C(=O)c3ccccc3)n2c2ccccc21	> 51.3	3.09	
CC(=O)OC1OC(=O)C(C)(C(C)=O)C1C (configuration not stated)			inactive
CCCCCCCCCCCCCCCCN1CCC2SC3CN(CCCCCCCCCCCCCCCC)CCC3SC2C1 (configuration not stated)	> 100	> 100	
O=c1cc(CO)[nH]cc1O			inactive
Cc1cc2nc3n(c2cc1C)C(c1c(F)cccc1F)SC3 (configuration not stated)	> 44.7	20.9	
Cc1cc(C)c(-c2c(O)c(O)c(-c3ccccc3)c3ccccc23)c(C)c1	> 200	7.76	
O=C(NNC(=O)c1ccccc1O)c1cccs1	> 200	16.2	
O=C1CN(CC2=CC3(CC2)CCC2=C3CCCC2=O)C(=O)N1 (configuration not stated)	> 417	> 417	
CC(C)C1=CC2=CCC3C(C)(COC(=O)COc4ccccc4)CCCC3(C)C2CC1 (configuration not stated)	> 200	46.8	
Cc1cccc(N2C(=O)/C(=C/c3ccc(N(CCC#N)CCC#N)cc3C)N=C2c2cc([N+](=O)[O-])ccc2Cl)c1			inactive

Structure (SMILES)	EC50 [µM]	IC50 [µM]	outcome
COc1cccc2c1C(=O)c1c(O)c3c(c(O)c1C2=O)C[C@@](O)(C(C)=O)C[C@@H]3OC1CC(N)C(O)C(C)O1 (some centres not stated)	> 4.47	0.0038	
COc1ccc(-c2cc(-c3ccco3)c(C#N)c(=O)[nH]2)cc1	> 24.5	> 24.5	
O=C(O)CCCCCCCCCCC(=O)O	> 148	> 148	
CCOC(=O)/C(=C\c1ccc(Br)cc1)[Se]c1ccccc1	> 63.1	> 63.1	
C=CCC(CC(CC=C)C(=O)O)C(=O)O (configuration not stated)	> 1170	> 1170	
O=C(NCc1ccc2ccc3cccnc3c2n1)c1ccc[n+](Cc2ccccc2)c1	> 513	24.5	
COc1cc2c(cc1O)Cc1c-2[n+](C)cc2cc(OC)c(OC)cc12	> 347	1.62	
COc1cc2nc3n(c2cc1OC)C(O)c1c(Cl)nc(SC)nc1S3 (configuration not stated)	> 200	7.76	
CCCCCC=C(c1cc(C)c(OC)c(C(=O)OC)c1)c1cc(C)c(OC)c(C(=O)OC)c1	> 51.3	25.7	
O=C(OCCO)c1c(Cl)c(Cl)c(Cl)c(Cl)c1-c1c2cc(Br)c(=O)c(Br)c-2oc2c(Br)c(O)c(Br)cc12	> 61.7	20.9	
O=C1CN2Cc3cc(N4CCOCC4)ccc3N=C2N1	> 257	40.7	
c1ccc2[nH]c(SSc3nc4ccccc4[nH]3)nc2c1	> 107	89.1	
O=C1CNCCNCC(=O)Nc2ccccc2-c2ccccc2N1			inactive
CN1C(=O)c2ccccc2C1(N)c1ccccc1 (configuration not stated)	661	871	
CCC(/C(=N\Nc1c(Cl)cc(Cl)cc1Cl)c1ccccc1)n1ccnc1C (configuration not stated)			inactive
CC[n+]1[b-](C(C)(C)C)n(/N=C(\C)C(C)(C)C)[b-](C(C)(C)C)[n+]1CC	> 200	31.6	
COC(=O)c1nc2c(C)c(O)c(Oc3c(C)c(O)c(O)c([C@H](C)CCC=C(C)C)c3O)c([C@H](C)CCC=C(C)C)c2o1	> 200	7.94	
O/N=C1\CC2(N3CCOCC3)CCC1(c1ccccc1)CC2			inactive
Cc1cc(S(=O)(=O)Nc2n[nH]c(Nc3ccc(Cl)cc3)n2)c(S)cc1Cl	> 100	> 100	
O=c1oc2c(ccc3nc(-c4ccccc4)sc32)c(N2CCOCC2)c1Cl			inactive
O=[N+]([O-])c1ccc2c(c1)n1c(N3CCCC3)[n+]3ccccc3c1c1c3cccc[n+]3c(N3CCCC3)n21	72.4	77.6	
N#CCCN(CCC#N)c1ccc(/C=C2\CC(O)(c3ccccc3)NC2=O)cc1 (configuration not stated)	> 7.08	> 7.08	

Structure (SMILES)	EC50 [µM]	IC50 [µM]	outcome
O=S(=O)(O)C(Br)(Br)Br	> 200	> 200	
COc1ccc(Nc2ccc3c4c(cccc24)C(=O)N(c2ccc(OC)cc2)C3=O)cc1	> 200	31.6	
Cn1c(=O)c2c(ncn2CC(=O)NC23CC4CC(CC(C4)C2)C3)n(C)c1=O			inactive
C/C(=N/NC(=S)Nc1ccc(Cl)cc1)c1cccc(/C(C)=N\NC(=S)Nc2ccc(Cl)cc2)n1	> 200	6.76	
O=S(=O)(O)c1cc2ccc1/C=C\c1ccc(cc1S(=O)(=O)O)N=Nc1ccc(c(S(=O)(=O)O)c1)/C=C\c1ccc(cc1S(=O)(=O)O)N=N2			active
CC1(COc2ccccc2OCC2(C)CO2)CO1 (configuration not stated)	> 1000	16.6	
COc1cc(CNc2nc3ccc(C(F)(F)F)cc3nc2-c2ccccc2)cc(OC)c1OC	> 11.2	> 11.2	
O=c1c2cc(-c3ccccc3)sc2nc2n1N=C(c1ccc(Cl)cc1)CS2	> 200	> 200	
Cc1nn[n-]n1.N.N.N.N.N.[Cl-].[Co+3]	> 832	> 832	
O=C(Nc1ccc2oc(=O)c(C(=O)O)cc2c1)Oc1ccccc1	> 282	> 282	
COCCNC1CCC2(SCCS2)c2[nH]c3ccccc3c21 (configuration not stated)	> 200	39.8	
c1ccc(-c2nnc(SSSSc3nnc(-c4ccccc4)o3)o2)cc1	> 200	107	
Nc1[nH]c(=S)nc2nc3c4ccccc4c4ccccc4c3nc12	> 200	> 200	
CCOC(=O)CC[C@H](NC(=O)c1ccc(CNc2nc3cc(C(F)(F)F)ccc3nc2C(=O)OCC)cc1)C(=O)OCC	> 100	> 100	
C[C@@H]1CC(O)C2(O)[C@@]13C[C@@H](OC(=O)[C@@H]3O)[C@](C)(O)[C@@]21COC1=O (some centres not stated)			inactive
N/N=C1\CC(c2ccccc2)Oc2ccccc21 (configuration not stated)	> 200	182	
CCCc1cc(=O)oc2c3c(cc(OC(C)COC)c12)O[C@H](C)[C@@H](C)[C@@H]3O (some centres not stated)	4.68	29.5	
COc1cc(C(=O)N2CCOCC2)cc(OC)c1OC	> 200	> 200	
CCOC(=O)/C(C#N)=C/c1ccc(-c2ccccc2)cc1	> 25.7	> 25.7	
ClCCCCCc1c2nc(c(CCCCCCl)c3ccc([nH]3)c(CCCCCCl)c3ccc([nH]3)c(CCCCCCl)c3nc1C=C3)C=C2	> 200	> 200	
